In patent US20170055533A1, “AROMATIC PHOSPHATE ESTERS AS AGROCHEMICAL FORMULATION COMPONENT” (priority 2011, published 2017):
Entries after “also recorded” stand apart in the source; their conditions may differ.

Tests used:
Assay type in all cases: in vivo
[1] = test system: Chenopodium album (CHEAL), Abutilon theophrasti (ABUTH), Setaria viridis (SETVI) and Digitaria sanguinalis (DIGSA); assay: Glasshouse weed kill test, nicosulfuron with and without adjuvants; details: conclusion from Table 3
Method: The efficacy of the aromatic phosphate esters tricresyl phosphate, Phosflex® 362 (2-ethylhexyl diphenyl phosphate) and triphenyl phosphate were tested in a glasshouse against four weed species using the herbicide nicosulfuron. An agrochemical composition was prepared containing 0.5% v/v of the adjuvant Atplus® 411 F in a track sprayer, and was applied at a volume of 200 litres per hectare. The other adjuvants were tested at a arte of 0.2% v/v. Nicosulfuron was applied at a rate of either 30 or 60 grams of pesticide per hectare to weeds which had been grown to the 1.3 or 1.4 leaf stage. The weed species were Chenopodium album (CHEAL), Abutilon theophrasti (ABUTH), Setaria viridis (SETVI) and Digitaria sanguinalis (DIGSA).
Each spray test was replicated three times. The efficacy of the herbicide was assessed visually and expressed as a percentage of the leaf area killed. Samples were assessed at time periods of 14 and 21 days following application. The results shown in Table 3 below are mean averages over the two rates of nicosulfuron, three replicates, four weed species and the two assessment timings, and are compared to the efficacy of nicosulfuron in the absence of adjuvant and nicosulfuron in the presence of the known tank mix adjuvant Atplus® 411F.

Septoria tritici [2] = assay: Septoria tritici on wheat plants, cyproconazole with and without phosphate ester adjuvants; details: conclusion from Table 2
Septoria tritici [3] = details: conclusion from Table 1
Tetranychus urticae = assay: Mortality of two spotted spider mite on French bean plants, abamectin with and without phosphate ester; details: for mortality of Tetranychus urticae, phosphate ester composition without abamectin: 0.14% v/v phosphate ester, no abamectin present; for % mortality of Tetranychus urticae: phosphate ester 0.14% v/v, 10 days, larva and adults averaged, lower side of leaves
Method: The efficacy of the aromatic phosphate ester Phosflex® 362 (2-ethylhexyl diphenyl phosphate) as an adjuvant in a composition containing abamectin was tested and compared to the efficacy of an abamectin composition without the Phosflex® 362 present, and to the efficacy of an abamectin composition containing triethyl phosphate. The Phosflex® 362 and the triethyl phosphate were present at 0.14% v/v in the abamectin compositions. The surfactants tristyrylphenol ethoxylate phosphate ester, sodium salt and tristyrylphenol ethoxylate were present in all the abamectin compositions tested.
Two week old French bean (Phaseolus vulgaris) plants were infested with a mixed population of two spotted spider mite Tetranychus urticae. One day after infestation the plants were treated with the test compositions, with a track sprayer from the top with a rate of 200 litres per hectare. Plants were incubated in the greenhouse for 10 days and the evaluation was done on mortality against Larva and Adults, just on the lower side (untreated) of the leaves. Each experiment was replicated twice and the results were averaged. The mortality against Larva and Adults was then averaged.

CCCCC(CC)COP(=O)(Oc1ccccc1)Oc1ccccc1 (stereo not shown) [Phosflex® 362, 2-ethylhexyldiphenyl phosphate]
efficacy as adjuvant for nicosulfuron (in words) [1]: performing particularly well
efficacy as adjuvant for cyproconazole (in words) (Septoria tritici [2]): performed best as an adjuvant out of the compounds tested
efficacy as adjuvant for isopyrazam (in words) (Septoria tritici [3]): more efficacious as an adjuvant than any of the other compounds tested
mortality of Tetranychus urticae, phosphate ester composition without abamectin (Tetranychus urticae): no mortality was observed
efficacy as adjuvant for abamectin (in words) (Tetranychus urticae; conclusion from Table 7): more effective control of Tetranychus urticae than the treatment containing abamectin with no adjuvant present; also recorded: considerably more effective than the alkyl phosphate ester triethyl phosphate

CCOP(=O)(OCC)OCC [triethyl phosphate]
mortality of Tetranychus urticae, phosphate ester composition without abamectin (Tetranychus urticae): no mortality was observed

abamectin
% mortality of Tetranychus urticae (Tetranychus urticae; 0.8 ppm abamectin): 0%
% mortality of Tetranychus urticae (Tetranychus urticae; 3 ppm abamectin): 20%
% mortality of Tetranychus urticae (Tetranychus urticae; 12.5 ppm abamectin): 50%

tricresyl phosphate [tricresylphosphate, reference compound]
efficacy as adjuvant for nicosulfuron (in words) [1]: performing particularly well
